From patent US12336981B2, “Compounds and compositions for the inhibition of NAMPT” (Valo Health, Inc., priority 2010, dated 2025)
pIC50: −log10 of the molar value. Like-named read-outs stand apart in the source and are kept apart here.

Key:
NAMPT = biological target: T1, NAMPT (Homo sapiens, UniProt P43490); assay: Biochemical inhibition assay: NAMPT enzymatic reaction, NMN quantified by mass spectrometry; details: read-out: Biochem IC50
T1 construct: His tag; host or cells: E. coli
Method in brief: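 Inhibition of E. coli-expressed His-tagged human NAMPT, measured as NMN formation by mass spectrometry after a 30 min room-temperature reaction containing 1 μM NAM, 100 μM PRPP and 2.5 mM ATP.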

A2780 cells = assay: In-vitro cell proliferation assay (SRB), A2780 cells; assay type: cell-based; details: Homo sapiens, A2780, 72 h, A2780 cells, 72 hours, read-out: A2780 IC50
Method in brief: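 Proliferation is assessed by sulforhodamine B staining following a 72-hour incubation with compound dilutions containing 0.1% DMSO.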

T1 sequence (P43490 whole entry): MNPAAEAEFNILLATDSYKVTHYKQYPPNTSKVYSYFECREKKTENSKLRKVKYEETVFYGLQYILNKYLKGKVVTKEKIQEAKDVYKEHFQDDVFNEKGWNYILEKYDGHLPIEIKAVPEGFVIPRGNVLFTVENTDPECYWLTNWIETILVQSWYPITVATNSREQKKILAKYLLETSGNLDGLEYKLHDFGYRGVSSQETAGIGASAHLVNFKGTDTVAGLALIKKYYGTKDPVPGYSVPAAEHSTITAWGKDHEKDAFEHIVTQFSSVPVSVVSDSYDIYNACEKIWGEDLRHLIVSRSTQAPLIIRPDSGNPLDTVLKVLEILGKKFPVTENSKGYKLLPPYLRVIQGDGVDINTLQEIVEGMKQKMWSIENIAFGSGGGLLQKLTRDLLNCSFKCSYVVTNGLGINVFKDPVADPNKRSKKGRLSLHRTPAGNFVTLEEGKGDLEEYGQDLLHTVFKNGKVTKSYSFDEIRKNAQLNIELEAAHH

SMILES	pIC50 (NAMPT; NAMPT enzymatic assay)	pIC50 (A2780 cells; SRB)	pIC50 (NAMPT; NAMPT enzymatic reaction)	pIC50 (A2780 cells; SRB assay)
COc1ccc(S(=O)(=O)c2ccc(CNC(=O)c3cnc4[nH]ncc4c3)cc2)c(C(F)(F)F)c1 [N-[(4-{[4-methoxy-2-(trifluoromethyl)benzene]sulfonyl}phenyl)methyl]-1H-pyrazolo[3,4-b]pyridine-5-carboxamide]	7.06	7.20	–	–
O=C(NCc1ccc(S(=O)(=O)c2ccccc2)cc1)c1cc(-c2cccnc2)[nH]n1 [N-{[4-(benzenesulfonyl)phenyl]methyl}-5-(pyridin-3-yl)-1H-pyrazole-3-carboxamide]	–	–	7.64	4.93
O=C(NCc1ccc(S(=O)(=O)c2cncc(C(F)(F)F)c2)cc1)c1cnc2[nH]ncc2c1 [N-({4-[5-(trifluoromethyl)pyridine-3-sulfonyl]phenyl}methyl)-1H-pyrazolo[3,4-b]pyridine-5-carboxamide]	7.96	8.40	–	–
O=C(NCc1ccc(S(=O)(=O)Nc2cccc3c2CCCC3)cc1)c1cc2cnccc2[nH]1 [N-({4-[(5,6,7,8-tetrahydronaphthalen-1-yl)sulfamoyl]phenyl}methyl)-1H-pyrrolo[3,2-c]pyridine-2-carboxamide]	–	–	< 4.52	< 4.52
Cc1ncccc1S(=O)(=O)c1ccc(CNC(=O)c2cnc3[nH]ncc3c2)cc1 [N-{[4-(2-methylpyridine-3-sulfonyl)phenyl]methyl}-1H-pyrazolo[3,4-b]pyridine-5-carboxamide]	6.98	6.87	–	–
CN1CCN(c2ccc(S(=O)(=O)c3ccc(CNC(=O)c4cc5ccncc5s4)cc3)cc2)CC1	9.00	9.52	–	–
O=C(NCc1ccc(S(=O)(=O)c2ccc(C(F)(F)F)cc2C(F)(F)F)cc1)c1cc2ccncc2o1	7.28	7.20	–	–
Cc1ccc(Cl)c(S(=O)(=O)c2ccc(CNC(=O)c3cnc4[nH]ncc4c3)cc2)c1	–	7.18	7.22	–
COc1cccc(S(=O)(=O)c2ccc(CNC(=O)c3cc4ccncc4s3)cc2)c1OC [N-({4-[(2,3-dimethoxybenzene)sulfonyl]phenyl}methyl)thieno[2,3-c]pyridine-2-carboxamide]	8.05	8.47	–	–
CCOc1ccccc1S(=O)(=O)c1ccc(CNC(=O)c2cc3cnccc3[nH]2)cc1 [N-({4-[(2-ethoxybenzene)sulfonyl]phenyl}methyl)-1H-pyrrolo[3,2-c]pyridine-2-carboxamide]	–	–	7.96	8.70
CCOc1ccc(S(=O)(=O)c2ccc(CNC(=O)c3cc4ccncc4s3)cc2)cc1	–	8.40	8.68	–
CCc1cccc(S(=O)(=O)c2ccc(CNC(=O)c3cnc4[nH]ncc4c3)cc2)c1	–	8.15	8.15	–
O=C(NCc1ccc(S(=O)(=O)c2ccc(F)c(C(F)(F)F)c2)cc1)c1cc2ccncc2s1	8.40	8.55	–	–
CCc1ccc(S(=O)(=O)c2ccc(CNC(=O)c3ccc4nccn4c3)cc2)cc1 [N-({4-[(4-ethylbenzene)sulfonyl]phenyl}methyl)imidazo[1,2-a]pyridine-6-carboxamide]	–	8.13	7.78	–
Cc1ccccc1S(=O)(=O)c1ccc(CNC(=O)c2cnc3[nH]ncc3c2)cc1 [N-({4-[(2-methylbenzene)sulfonyl]phenyl}methyl)-1H-pyrazolo[3,4-b]pyridine-5-carboxamide]	–	6.00 to 7.00	7.03	–
Cc1cc(C)cc(S(=O)(=O)c2ccc(CNC(=O)c3ccc4nccn4c3)cc2)c1 [N-({4-[(3,5-dimethylbenzene)sulfonyl]phenyl}methyl)imidazo[1,2-a]pyridine-6-carboxamide]	–	8.50	8.17	–
CC(=O)c1cccc(S(=O)(=O)c2ccc(CNC(=O)c3cnc4nccn4c3)cc2)c1	–	7.98	8.74	–

SMILES	pIC50 (NAMPT; NAMPT enzymatic assay)	pIC50 (A2780 cells; SRB)	pIC50 (NAMPT; NAMPT enzymatic reaction)	pIC50 (A2780 cells; SRB assay)
CC(C)Oc1cccc(S(=O)(=O)c2ccc(CNC(=O)c3cnc4[nH]ncc4c3)cc2)c1	7.34	7.61	–	–
O=C(NCc1ccc(S(=O)(=O)N2CCCCC2)cc1)c1cccnc1 [N-{[4-(piperidine-1-sulfonyl)phenyl]methyl}pyridine-3-carboxamide]	–	–	7.41	6.19
O=C(NCc1ccc(S(=O)(=O)c2cccc(C(F)(F)F)n2)cc1)c1cnc2nccn2c1 [N-({4-[6-(trifluoromethyl)pyridine-2-sulfonyl]phenyl}methyl)imidazo[1,2-a]pyrimidine-6-carboxamide]	7.94	7.69	–	–
O=C(NCc1ccc(S(=O)(=O)c2cccc(C(=O)NC3CCCC3)c2)cc1)c1cnc2[nH]ncc2c1 [N-[(4-{[3-(cyclopentylcarbamoyl)benzene]sulfonyl}phenyl)methyl]-1H-pyrazolo[3,4-b]pyridine-5-carboxamide]	7.48	7.48	–	–
O=C(NCc1ccc(S(=O)(=O)c2cccc(-c3ccccc3)c2)cc1)c1cc2ccncc2s1	–	8.00	8.35	–
O=C(NCc1ccc(S(=O)(=O)c2cccc(F)c2)cc1)c1cc2ccncc2o1 [N-({4-[(3-fluorobenzene)sulfonyl]phenyl}methyl)furo[2,3-c]pyridine-2-carboxamide]	–	7.84	8.24	–
CCN(C)c1ncc(S(=O)(=O)c2ccc(CNC(=O)c3cc4ccncc4o3)cc2)s1 [N-[(4-{2-[ethyl(methyl)amino]-1,3-thiazole-5-sulfonyl}phenyl)methyl]furo[2,3-c]pyridine-2-carboxamide]	8.32	9.05	–	–
CCc1ccc(S(=O)(=O)c2ccc(CNC(=O)c3cc4cnccc4[nH]3)cc2)cc1 [N-({4-[(4-ethylbenzene)sulfonyl]phenyl}methyl)-1H-pyrrolo[3,2-c]pyridine-2-carboxamide]	–	–	8.10	7.92
Cn1ncc2cc(S(=O)(=O)c3ccc(CNC(=O)c4cc5ccncc5o4)cc3)ccc21 [N-{[4-(1-methyl-1H-indazole-5-sulfonyl)phenyl]methyl}furo[2,3-c]pyridine-2-carboxamide]	8.48	8.46	–	–
O=C(NCc1ccc(S(=O)(=O)c2cc(Cl)ccc2OCC(F)F)cc1)c1cc2cnccc2[nH]1	8.30	9.30	–	–
O=C(NCc1ccc(S(=O)(=O)N2CCCCC2)cc1)c1ccc2nccn2c1 [N-{[4-(piperidine-1-sulfonyl)phenyl]methyl}imidazo[1,2-a]pyridine-6-carboxamide]	–	–	7.74	5.94
Cc1cccc(C)c1S(=O)(=O)c1ccc(CNC(=O)c2cc3ccncc3o2)cc1	–	6.00 to 7.00	7.49	–
CN(C)Cc1ccc(S(=O)(=O)c2ccc(CNC(=O)c3cnc4nccn4c3)cc2)cc1	8.48	7.61	–	–
Cn1ncc(S(=O)(=O)c2ccc(CNC(=O)c3cnc4nccn4c3)cc2)c1C(F)(F)F [N-({4-[1-methyl-5-(trifluoromethyl)-1H-pyrazole-4-sulfonyl]phenyl}methyl)imidazo[1,2-a]pyrimidine-6-carboxamide]	8.40	7.17	–	–
COc1cncc(S(=O)(=O)c2ccc(CNC(=O)c3ccc4nccn4c3)cc2)c1 [N-{[4-(5-methoxypyridine-3-sulfonyl)phenyl]methyl}imidazo[1,2-a]pyridine-6-carboxamide]	8.05	8.47	–	–
O=C(NCc1ccc(S(=O)(=O)c2ccccc2F)cc1)c1cc2ccncc2o1 [N-({4-[(2-fluorobenzene)sulfonyl]phenyl}methyl)furo[2,3-c]pyridine-2-carboxamide]	–	6.00 to 7.00	7.38	–
